Laboratory results as given in publication PMC4840437, “Crystal Structures and Binding Dynamics of Odorant-Binding Protein 3 from two aphid species Megoura viciae and Nasonovia ribisnigri” (Scientific Reports, 2016).
Read-outs that look alike come from different tables or passages of the source.

What was measured:
[1] = biological target: T1, MvicOBP3 (Megoura viciae, UniProt A0A0S2E5N6); experiment: Competitive fluorescence binding assay (NPN displacement)
T1 sequence (A0A0S2E5N6 2-122): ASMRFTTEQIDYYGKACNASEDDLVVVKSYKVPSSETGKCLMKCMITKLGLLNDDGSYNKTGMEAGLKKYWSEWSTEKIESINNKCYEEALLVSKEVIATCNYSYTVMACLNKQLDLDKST
Description: (§1) Proteins were dissolved in 20 mM Tris-HCl buffer pH 7.4 and emission fluorescence spectra were recorded on a LS50 Luminescence Spectrometer (PerkinElmer, Buckinghamshire, UK) at 22 °C in a right angle configuration, with a 1 cm light path quartz cuvette and 5–10 nm slits for excitation and emission. […] The probe was excited at 337 nm and emission spectra were recorded between 380 and 450 nm. […] For determining binding constants, the intensity values corresponding to the maximum fluorescence emission were plotted against free ligand concentrations. We use GraphPad (http://www.graphpad.com/guides/prism/6/curve-fitting/index.htm?reg_one_site_competition_ki.htm) to determine the equilibrium dissociation constant Ki of ligand by measuring its competition for NPN and nonlinear regression curve fitting to the one site competitive binding model. This model fits the Ki of the ligand directly using the fixed concentration of NPN and the dissociation constant for NPN KNPN obtained from a direct fluorescence titration and nonlinear regression curve fitting to one site binding model Y = Bmax*X/(KNPN + X) + NS*X (X is the NPN concentration, Bmax is the maximum specific binding in the same units as Y, NS is the slope of nonspecific binding in Y units divided by X units). The corrected Ki is fitted directly rather than fitting an IC50 and modifying it with the Cheng and Prusoff equation[48]. The analysis assumes that the protein has one binding site and 100% active, and that the binding is reversible and at equilibrium. Tested compounds were EβF (Bedoukian Research, Danbury, CT, USA), β-pinene, (−)-α-pinene and (+)-limonene (Sigma, St. Louis, MO).

[2] = biological target: T2, NribOBP3 (Nasonovia ribisnigri, UniProt A0A0M4AUH6); experiment: as above
T2 sequence (A0A0M4AUH6 1-119): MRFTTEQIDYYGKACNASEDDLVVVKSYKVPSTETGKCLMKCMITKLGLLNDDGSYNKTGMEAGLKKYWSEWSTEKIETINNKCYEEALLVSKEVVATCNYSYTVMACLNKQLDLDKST
Description: as §1

[3] = biological target: T1, MvicOBP3; experiment: Direct fluorescence titration of the probe NPN; type: binding; conditions: recombinant MvicOBP3, 2 μM protein, 20 mM Tris-HCl pH 7.4, 22 °C; read-out: Kd of fluorescent probe NPN
Description: as §1, with “The analysis assumes that the protein has one binding site and 100% active, and that the binding is reversible and at equilibrium. Tested compounds were EβF (Bedoukian Research, Danbury, CT, USA), β-pinene, (−)-α-pinene and (+)-limonene (Sigma, St. Louis, MO).” left out

[4] = biological target: T2, NribOBP3; experiment: Direct fluorescence titration of the probe NPN; type: binding; conditions: recombinant NribOBP3, 2 μM protein, 20 mM Tris-HCl pH 7.4, 22 °C; read-out: Kd of fluorescent probe NPN
Description: as §1, with “The analysis assumes that the protein has one binding site and 100% active, and that the binding is reversible and at equilibrium. Tested compounds were EβF (Bedoukian Research, Danbury, CT, USA), β-pinene, (−)-α-pinene and (+)-limonene (Sigma, St. Louis, MO).” left out

[5] = displacement of NPN (2 μM) from MvicOBP3/NPN complex, one site competitive binding model, read-out: Competitive inhibitor binding constant (Ki)
[6] = displacement of NPN (2 μM) from NribOBP3/NPN complex, one site competitive binding model, read-out: Competitive inhibitor binding constant (Ki)

Ki [1, 5]	Ki [2, 6]	Compound	also measured
1800 nM	20200 nM	CC1=CCC2CC1C2(C)C (stereo not drawn) [(−)-α-pinene]	
		C=C1CCC2CC1C2(C)C (stereo not drawn) [β-pinene]	Ki [1]: 2300 nM; Ki [2]: 30700 nM
100 nM	5200 nM	C=CC(=C)CC/C=C(\C)CCC=C(C)C [(E)-β-farnesene]	
		c1ccc(Nc2cccc3ccccc23)cc1 [NPN, N-phenyl-1-naphthylamine]	Kd [3]: 1900 nM; Kd [4]: 9000 nM

Compound	Ki [1, 5]	Ki [2, 6]	also measured
C=C(C)C1CC=C(C)CC1 (single isomer, unassigned; (+)) [(+)-limonene]	2500 nM		
